Results reported in paper PMC10970622, “Functional Characterization of Endo- and Exo-Hydrolase Genes in Arabinan Degradation Gene Cluster of Bifidobacterium longum subsp. suis” (International Journal of Molecular Sciences, 2024).

Experiments:
[1] = target: T1, BflsABN43A (Bifidobacterium longum, UniProt A0A087B7X1); experiment: TLC of hydrolysis products; type: biochemical; conditions: 0.5% substrate, optimal conditions (pH 5.0, 45 °C)
T1 construct: gene BLSS_1421; 531 aa (56 kDa) printed; 35-residue signal peptide removed (primer deltaS; starts M-SSNAKN by primer), C-terminal His6, E. coli; caution: same WP id also printed for BflsABF43A (710 aa)
T1 sequence (A0A087B7X1 36-531): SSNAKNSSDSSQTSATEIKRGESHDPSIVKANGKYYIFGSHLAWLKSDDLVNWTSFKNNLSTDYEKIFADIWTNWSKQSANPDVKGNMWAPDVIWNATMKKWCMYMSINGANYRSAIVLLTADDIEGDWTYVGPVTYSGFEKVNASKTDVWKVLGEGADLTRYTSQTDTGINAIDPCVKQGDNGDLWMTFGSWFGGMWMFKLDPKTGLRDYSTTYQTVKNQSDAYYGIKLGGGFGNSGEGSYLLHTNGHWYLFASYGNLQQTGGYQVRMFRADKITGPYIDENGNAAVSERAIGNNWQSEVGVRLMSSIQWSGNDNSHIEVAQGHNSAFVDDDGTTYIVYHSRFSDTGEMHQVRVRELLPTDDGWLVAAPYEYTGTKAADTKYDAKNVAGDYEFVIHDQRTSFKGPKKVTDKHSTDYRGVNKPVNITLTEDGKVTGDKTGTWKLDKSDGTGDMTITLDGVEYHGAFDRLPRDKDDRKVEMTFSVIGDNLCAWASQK

[2] = target: T2, BflsABN43B (Bifidobacterium longum, UniProt A0A087B7X0); experiment: TLC of hydrolysis products; type: biochemical; conditions: 0.5% substrate, optimal conditions (pH 6.0, 50 °C)
T2 construct: gene BLSS_1420; full length, 581 aa, 65 kDa, C-terminal His6, E. coli BL21(DE3); starts MTATTS by primer
T2 sequence (A0A087B7X0 1-581): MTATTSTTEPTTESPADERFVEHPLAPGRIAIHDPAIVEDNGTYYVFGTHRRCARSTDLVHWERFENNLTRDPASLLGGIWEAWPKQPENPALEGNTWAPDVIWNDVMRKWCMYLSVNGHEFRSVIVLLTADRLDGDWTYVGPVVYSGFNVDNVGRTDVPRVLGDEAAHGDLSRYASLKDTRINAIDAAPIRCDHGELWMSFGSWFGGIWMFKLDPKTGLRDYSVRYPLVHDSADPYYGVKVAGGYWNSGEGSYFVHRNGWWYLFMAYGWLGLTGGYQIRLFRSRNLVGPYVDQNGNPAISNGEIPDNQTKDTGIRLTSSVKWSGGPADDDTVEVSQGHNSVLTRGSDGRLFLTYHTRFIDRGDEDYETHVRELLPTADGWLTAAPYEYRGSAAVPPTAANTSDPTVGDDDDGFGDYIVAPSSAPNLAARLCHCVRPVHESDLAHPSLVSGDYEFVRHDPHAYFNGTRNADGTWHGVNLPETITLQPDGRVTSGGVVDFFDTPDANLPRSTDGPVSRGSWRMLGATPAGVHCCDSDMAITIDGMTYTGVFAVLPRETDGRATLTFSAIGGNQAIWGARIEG

OC[C@@H]1O[C@@H](OC[C@@H]2O[C@@H](OC[C@@H]3O[C@@H](OC[C@@H]4O[C@@H](OC[C@@H]5O[C@@H](OC[C@@H]6OC(O)[C@H](O)[C@H]6O)[C@H](O)[C@H]5O)[C@H](O)[C@H]4O)[C@H](O)[C@H]3O)[C@H](O)[C@H]2O)[C@H](O)[C@H]1O (some centres unmarked) [A6, arabinohexaose]
TLC of hydrolysis products [1]: both ABNs demonstrated detectable hydrolytic activities to produce A2 and arabinotetraose (A4) | TLC of hydrolysis products [2]: both ABNs demonstrated detectable hydrolytic activities to produce A2 and arabinotetraose (A4)
